From ChEMBL document CHEMBL1201862, “PubChem BioAssay data set” (2004)
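96-well plates; 48 h exposure; 5 concentrations. Endpoints by linear interpolation between flanking doses. Not reached: highest tested concentration assigned. GI50: concentration for 50% inhibition of growth.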 Activity calls are given as the source filed them. Rule as the data show it: active = GI50 up to about 1.1 µM and inactive = higher.

How the values were obtained:
Assay in all cases: DTP human tumour cell line panel, 48 h
RPMI-8226 = tested on: RPMI-8226
NCI-H23 = tested on: NCI-H23
MCF7 = tested on: MCF7
Malme-3M = tested on: Malme-3M
SF-539 = tested on: SF-539
SNB-19 = tested on: SNB-19
UACC-62 = tested on: UACC-62
NCI-H460 = tested on: NCI-H460
K562 = tested on: K562
MOLT-4 = tested on: MOLT-4
SF-268 = tested on: SF-268
SK-MEL-2 = tested on: SK-MEL-2
HL-60 = tested on: HL-60
UO-31 = tested on: UO-31
M14 = tested on: M14
HCT-15 = tested on: HCT-15
HCT-116 = tested on: HCT-116
HT-29 = tested on: HT-29
SK-OV-3 = tested on: SK-OV-3
A549 = tested on: A549

| SMILES | GI50 (RPMI-8226) | GI50 (NCI-H23) | GI50 (MCF7) | GI50 (Malme-3M) | GI50 (SF-539) | GI50 (SNB-19) | GI50 (UACC-62) | GI50 (NCI-H460) | GI50 (K562) | GI50 (MOLT-4) | GI50 (SF-268) | GI50 (SK-MEL-2) | GI50 (HL-60) | GI50 (UO-31) | GI50 (M14) | GI50 (HCT-15) [µM] | GI50 (HCT-116) | GI50 (HT-29) | GI50 (SK-OV-3) | GI50 (A549) |
| --- | --- | --- | --- | --- | --- | --- | --- | --- | --- | --- | --- | --- | --- | --- | --- | --- | --- | --- | --- | --- |
| COC(=O)C1=C(O)C(C(=O)OC)[C@@]2(O)[C@@H](C(=O)OC)CC[C@@H]1[C@@H]2C(=O)OC (stereo not given in full) | 27.2 µM (inactive) | 17.8 µM (inactive) | 35.6 µM (inactive) | 21.5 µM (inactive) | 18.6 µM (inactive) | 43.4 µM (inactive) | 30 µM (inactive) | 16.1 µM (inactive) | 25.4 µM (inactive) | 29.4 µM (inactive) | 29.4 µM (inactive) | 16 µM (inactive) | 23.3 µM (inactive) | 29.2 µM (inactive) | 22.6 µM (inactive) | 20.6 | 30.4 µM (inactive) | > 100 µM (inactive) | 19.2 µM (inactive) |  |
| Cc1[nH]c(=O)[nH]c(=O)c1/C=C/C(=O)NC(CO)C[S+]([O-])Cc1ccccc1 (stereo not given) | > 300 µM (inactive) | > 300 µM (inactive) | > 300 µM (inactive) | > 300 µM (inactive) | > 300 µM (inactive) | > 300 µM (inactive) | > 300 µM (inactive) | > 300 µM (inactive) | > 300 µM (inactive) | > 300 µM (inactive) | > 300 µM (inactive) | > 277 µM (inactive) | > 300 µM (inactive) | > 300 µM (inactive) |  | > 300 | > 300 µM (inactive) | > 300 µM (inactive) | > 300 µM (inactive) | > 300 µM (inactive) |
| O=C1C(Cl)N(c2ccc(Cl)cc2Cl)C1c1c[nH]c2ccccc12 (stereo not given) | > 100 µM (inactive) | 92.3 µM (inactive) |  | > 100 µM (inactive) | > 100 µM (inactive) | 6.01 µM (inactive) | > 100 µM (inactive) | > 100 µM (inactive) | > 100 µM (inactive) | > 100 µM (inactive) | > 100 µM (inactive) | > 100 µM (inactive) | > 100 µM (inactive) | 4.75 µM (inactive) | > 100 µM (inactive) |  | 91.2 µM (inactive) | > 100 µM (inactive) | > 100 µM (inactive) | > 100 µM (inactive) |
| O=c1c(Cc2ccc(Cc3c(O)oc4ccccc4c3=O)cc2)c(O)oc2ccccc12 |  | > 100 µM (inactive) | > 100 µM (inactive) | > 100 µM (inactive) | > 100 µM (inactive) |  | > 100 µM (inactive) | > 100 µM (inactive) | > 100 µM (inactive) | > 100 µM (inactive) | > 100 µM (inactive) | > 100 µM (inactive) | > 100 µM (inactive) | 42 µM (inactive) | > 100 µM (inactive) | > 100 | > 100 µM (inactive) | > 100 µM (inactive) | > 100 µM (inactive) | > 100 µM (inactive) |
| CCOC(=O)C(NC(C)=O)(Nc1ccc(F)cc1)C(F)(F)F (stereo not given) | 72.1 µM (inactive) | > 100 µM (inactive) | 28.2 µM (inactive) |  | > 100 µM (inactive) | > 100 µM (inactive) | 18.2 µM (inactive) | 7.21 µM (inactive) | 2.61 µM (inactive) | 90.6 µM (inactive) | > 100 µM (inactive) | > 100 µM (inactive) | 4.79 µM (inactive) | 34.8 µM (inactive) | 20.2 µM (inactive) | 0.49 | 13.4 µM (inactive) | > 100 µM (inactive) | > 100 µM (inactive) | 39.3 µM (inactive) |
| COc1cc2c(cc1OC)C1Cc3sccc3CN1CC2 (stereo not given) | > 100 µM (inactive) | > 100 µM (inactive) |  | > 100 µM (inactive) | > 100 µM (inactive) | > 100 µM (inactive) | > 100 µM (inactive) | > 100 µM (inactive) | > 100 µM (inactive) | > 100 µM (inactive) | > 100 µM (inactive) | > 100 µM (inactive) | > 100 µM (inactive) | > 100 µM (inactive) | 72.4 µM (inactive) | > 100 | > 100 µM (inactive) | > 100 µM (inactive) | > 100 µM (inactive) | > 100 µM (inactive) |
| C=CCn1c2ccccc2c2c(C)c3cnccc3c(C)c21 | 3.61 µM (inactive) | 6.95 µM (inactive) | 5.52 µM (inactive) | 13.8 µM (inactive) | 10.7 µM (inactive) | 12.9 µM (inactive) | 9.35 µM (inactive) | 4.47 µM (inactive) | 5.6 µM (inactive) | 2.95 µM (inactive) | 7.98 µM (inactive) | 15.8 µM (inactive) | 3.17 µM (inactive) | 4.39 µM (inactive) |  | 6.92 | 4.48 µM (inactive) | 8.93 µM (inactive) | 5.9 µM (inactive) | 9.77 µM (inactive) |
| O=C(O)CN(CC(=O)O)C1CCCCC1N(CC(=O)O)CC(=O)NCCN=C=S (stereo not given) | > 100 µM (inactive) | > 100 µM (inactive) | > 100 µM (inactive) | > 100 µM (inactive) | > 100 µM (inactive) | > 100 µM (inactive) | > 100 µM (inactive) | > 100 µM (inactive) | > 100 µM (inactive) | > 100 µM (inactive) | > 100 µM (inactive) | > 100 µM (inactive) | > 100 µM (inactive) | > 100 µM (inactive) | > 100 µM (inactive) | > 100 | > 100 µM (inactive) | > 100 µM (inactive) | > 100 µM (inactive) | > 100 µM (inactive) |
| CC(C)(C)C1(c2ccc(C3(c4ccccc4)Oc4ccccc4S3)[nH]2)Oc2ccccc2S1 (stereo not given) | 96.2 µM (inactive) | > 100 µM (inactive) |  | > 100 µM (inactive) | > 100 µM (inactive) | > 100 µM (inactive) | > 100 µM (inactive) | > 100 µM (inactive) | > 100 µM (inactive) | 65.5 µM (inactive) | > 100 µM (inactive) | > 100 µM (inactive) | > 100 µM (inactive) | 90.4 µM (inactive) | > 100 µM (inactive) | > 100 | > 100 µM (inactive) | > 100 µM (inactive) | > 100 µM (inactive) | > 100 µM (inactive) |
